Reference: patent US6903125B2, “Tetrahydro-2H-thiopyran-4-carboxamide derivative” (Yamanouchi Pharmaceutical Co., Ltd., priority 2003, dated 2005)
Where two headings read alike, the source gives them in different places.

Assays:
[1] = system: HSV-1 strain WT-51; assay: Cutaneously HSV-1-infected hairless mice model; format: in vivo, hairless mice [HR-1]; conditions: oral, methyl cellulose suspension, 10 mg/kg twice daily for 5 days; from AUC of mean composite disease score over 17 days
Procedure: Female hairless mice [HR-1, 7 weeks of age] were infected with a virus suspension containing HSV-1 strain WT-51 (1.5×10^4 PFU/15 μl) on the lateral side of the body, which had scratched with a needle, while anesthetized with diethyl ether, as previously described by H. Machida et al. [Antiviral Res., 1992, 17, 133-143]. Tested compounds were administered orally as a methyl cellulose suspension, except for compounds marked with asterisk which were dissolved in 20% Cremophor EL and 20% polyethylene glycol, starting at 3 hours after the infection, and then at a dose of 10 mg/kg twice daily for a period of 5 days. Hairless mice were inspected daily and disease severity was determined using the following criteria: • Score 0: no signs of infection. • Score 1: localized, barely perceptible small vesicles. • Score 2: slight vesicle spread. • Score 3: large patches of vesicles formed. • Score 4: zosteriform vesicles. • Score 5: large patches of ulcers formed. • Score 6: zosteriform with severe large ulcers. • Score 7: hind limb paralysis or death.
The zosteriform skin lesion and neurological scores for each animal were combined to produce a composite score. The mean composite score was used to represent the disease in each study group. The disease course was measured for 17 days and the extent of the disease was represented by the area under the curve (AUC) of the mean daily composite disease score each day after viral inoculation. The inhibitory activities of tested compounds were calculated using the AUCs.

[2] = system: VZV (strain CaQu); assay: Anti-VZV activity assay (plaque reduction in HEF cells); format: cell-based, varicella zoster virus
Procedure: This experiment was carried out based on the method described by Shigeta S., The Journal of Infectious Diseases, 147, 3, 576-584 (1983). Briefly, 10,000 human embryonic fibroblast (HEF) cells were inoculated in a 96-well microtiter plate, using a growth culture medium [Eagle MEM (Nissui) supplemented with 10% (v/v) fetal bovine serum (FBS; Sigma)], for culturing in 5% CO2 at 37° C. for 4 days until a monolayer was formed. After the cells were washed with a maintenance culture medium (MEM supplemented with 2% FBS), VZV (strain CaQu) preliminarily diluted to 20 to 30 pfu/100 μl with the maintenance culture medium was inoculated at 100 μl/well. The plate was centrifuged at 2,000 rpm at ambient temperature for 20 minutes and was then incubated in 5% CO2 at 37° C. for 3 hours, for infection with VZV. After the plate was washed three times with the maintenance culture medium, 100 μl of a test drug diluted to an appropriate concentration with the maintenance culture medium was added to each well. After the cells were cultured in 5% CO2 at 37° C. for 3 to 4 days, 10% formalin/PBS was added at 100 μl/well to fix the cells for 2 to 3 hours. After discarding the fixing solution and culture supernatant and subsequently washing the plate with water, a staining solution (0.025% Crystal Violet) was added at 50 μl/well for staining for 2 to 3 minutes, and then, the plate was washed with water and dried at 37° C. Cellular death is induced in the HEF cells infected with VZV, so that plaques of the dead cells are formed in the monolayer of the HEF cells.

[3] = system: HSV-1 (strain KOS); assay: Anti-HSV-1 activity assay (MTT, MRC-5 cells); format: cell-based; conditions: HSV-1 strain KOS in MRC-5 cells, 5 days culture, read-out: EC50 value (suppression of cellular death of MRC-5 cells via HSV-1 replication)
Procedure: 10,000 MRC-5 cells were inoculated and cultured in a 96-well microtiter plate, using the growth culture medium in 5% CO2 at 37° C. for 4 to 5 days until a monolayer was formed. After the cells were washed with the maintenance culture medium, 100 μl of the maintenance culture medium dissolving therein an appropriate concentration of a test reagent was added to each well. Immediately after the test drug was added, an HSV-1 (strain KOS) solution was inoculated at 50 TCID50 (50% tissue culture infectious dose)/100 μl. After the cells were cultured in 5% CO2 at 37° C. for 5 days, 20 μl of MTT solution [3-(4,5-dimethyl-2-thiazolyl)-2,5-diphenyl-2H-tetrazolium bromide; Sigma] (diluted with PBS to 7.5 mg/ml) was added to each well, for another 24-hour incubation. After the culture medium was discarded, 100 μl of a solvent (prepared by adding 10% (v/v) Triton X 100 and 0.4% hydrochloric acid to isopropanol) was added to each well, to solubilize the generated formazan. The absorbance at 540 nm or 690 nm was measured with a microplate reader. Based on the suppression ratio (%) of the cellular death of the MRC-5 cell via HSV-1 replication, the EC50 value of the test drug was calculated.

[4] = Human alphaherpesvirus 3, read-out: EC50 value (concentration to inhibit 50% of the plaques), plaque count after 3 to 4 days
[5] = Human alphaherpesvirus 1, MRC5, 120 h

EC50 [2, 4] [µM] | Compound | Inhibitory activity (%) [1] [%] | EC50 [3, 5] [µM] | EC50 ([2]; read-out: EC50 value (concentration to inhibit 50% of the plaques), plaque count after 3 to 4 days) [µM] | EC50 [3] [µM]
0.095 | Cc1cc(N(CC(=O)Nc2ccc(-c3ncon3)cc2)C(=O)C2CCS(=O)(=O)CC2)ccc1Cl [Example 37, N-(4-chloro-3-methylphenyl)-N-(2-{[4-(1,2,4-oxadiazol-3-yl)phenyl]amino}-2-oxoethyl)tetrahydro-2H-thiopyran-4-carboxamide 1,1-dioxide] | – | 0.026 | – | –
0.033 | Cc1cc(N(CC(=O)Nc2ccc(-c3cocn3)cc2)C(=O)C2CCS(=O)(=O)CC2)ccc1Cl [Example 13, N-(4-chloro-3-methylphenyl)-N-(2-{[4-(1,3-oxazol-4-yl)phenyl]amino}-2-oxoethyl)tetrahydro-2H-thiopyran-4-carboxamide 1,1-dioxide] | – | 0.006 | – | –
0.075 | Cc1cccc(C)c1N(CC(=O)Nc1ccc(-c2cocn2)cc1)C(=O)C1CCS(=O)(=O)CC1 [Example 1, N-(2,6-dimethylphenyl)-N-(2-{[4-(1,3-oxazol-4-yl)phenyl]amino}-2-oxoethyl)tetrahydro-2H-thiopyran-4-carboxamide 1,1-dioxide] | – | 0.075 | – | –
0.082 | Cc1ccc(N(CC(=O)Nc2ccc(-c3ncon3)cc2)C(=O)C2CCS(=O)(=O)CC2)c(C)c1F [Example 39, N-(3-fluoro-2,4-dimethylphenyl)-N-(2-{[4-(1,2,4-oxadiazol-3-yl)phenyl]amino}-2-oxoethyl)tetrahydro-2H-thiopyran-4-carboxamide 1,1-dioxide] | – | 0.029 | – | –

The next lines start with the molecule.

Compound | EC50 [2, 4] [µM] | Inhibitory activity (%) [1] [%] | EC50 [3, 5] [µM] | EC50 ([2]; read-out: EC50 value (concentration to inhibit 50% of the plaques), plaque count after 3 to 4 days) [µM] | EC50 [3] [µM]
Cc1cccc(N(CC(=O)Nc2ccc(-c3ncon3)cc2)C(=O)C2CCS(=O)(=O)CC2)c1C [Example 24, N-(2,3-dimethylphenyl)-N-(2-{[4-(1,2,4-oxadiazol-3-yl)phenyl]amino}-2-oxoethyl)tetrahydro-2H-thiopyran-4-carboxamide 1,1-dioxide] | – | 69 | – | – | –
Nc1nc2c(ncn2COCCO)c(=O)[nH]1 [acyclovir, reference compound] | 3.4 | – | 0.48 | – | –
O=C(CN(C(=O)C1CCS(=O)(=O)CC1)c1ccc2c(c1)CCC2)Nc1ccc(-c2cocn2)cc1 [Example 11] | – | 92 | – | 0.06 | 0.04
Cc1ccc(N(CC(=O)Nc2ccc(-c3cocn3)cc2)C(=O)C2CCS(=O)(=O)CC2)cc1 [Example 2, N-(4-methylphenyl)-N-(2-{[4-(1,3-oxazol-4-yl)phenyl]amino}-2-oxoethyl)tetrahydro-2H-thiopyran-4-carboxamide 1,1-dioxide] | – | 85 | – | – | –
Cc1cccc(C)c1N(CC(=O)Nc1ccc(-c2ncon2)cc1)C(=O)C1CCS(=O)(=O)CC1 [Example 27, N-(2,6-dimethylphenyl)-N-(2-{[4-(1,2,4-oxadiazol-3-yl)phenyl]amino}-2-oxoethyl)tetrahydro-2H-thiopyran-4-carboxamide 1,1-dioxide] | 0.1 | 86 | 0.06 | – | –
